Values of other authors as cited in patent US9873661B2, “Small molecule malarial Aldolase-TRAP enhancers and glideosome inhibitors” (NEW YORK UNIVERSITY, priority 2011, dated 2018).

Target: T1, plant plasma membrane H+-ATPase (PMA) and 14-3-3 (Nicotiana tabacum, UniProt P93343)
T1 sequence (P93343 1-260): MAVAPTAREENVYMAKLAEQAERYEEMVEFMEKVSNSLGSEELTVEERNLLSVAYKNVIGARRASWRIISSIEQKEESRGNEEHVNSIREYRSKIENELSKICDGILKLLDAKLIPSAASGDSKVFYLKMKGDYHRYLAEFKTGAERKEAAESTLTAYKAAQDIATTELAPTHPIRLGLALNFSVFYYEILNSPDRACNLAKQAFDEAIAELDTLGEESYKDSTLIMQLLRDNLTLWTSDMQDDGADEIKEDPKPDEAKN

Substance: fusioccin
- increase of binding affinity between PMA and 14-3-3: approximately 90 fold
